A word on the IC50: it is the concentration that gives 50% inhibition.

The values below come from paper PMC11968394, “The effect of deuterated PLK1 inhibitor on its safety and efficacy in vivo” (Frontiers in Oncology, 2025).

One data set addresses CLK2 (Homo sapiens, UniProt P49760). The experiment in a line: Kinase assay CLK2. Format: biochemical. The procedure:
(§1) Serial dilutions in DMSO were prepared. PLK1 was serially diluted 5-fold from 10 μM, yielding concentrations from 10000 nM to 0.00512 nM. Other targets were serially diluted 3-fold from 10 μM, yielding concentrations from 10000 nM to 0.5 nM. We have used two kinase assays: HTRF assay and ADG-Glo assay.
(§2) For HTRF Assay, 2× ATP/substrate solution and 2× kinase solution were prepared in kinase reaction buffer. Using an Echo 655, 50 nL of each diluted compound was transferred to a 384-well detection plate. The plate was centrifuged at 1000 rpm for 1 minute. 2.5 μL of 2× kinase solution was added to each well. The plate was incubated at 25°C for 10 minutes. 2.5 μL of 2× ATP/substrate solution was added to each well. The plate was centrifuged at 1000 rpm for 1 minute. The plate was incubated at 25°C for 40 minutes. 2× XL665 and antibody detection reagent were prepared in detection buffer. 5 μL of the prepared kinase detection reagent was added to each well. The plate was centrifuged at 1000 rpm for 1 minute. The plate was incubated at 25°C for 1 hour. Fluorescence signals at 620 nm (Cryptate) and 665 nm (XL665) were measured using a multifunction plate reader.
(§3) For ADP-Glo Assay, 2× ATP/substrate solution and 2× kinase solution were prepared in kinase reaction buffer. […] Luminescence signals were measured using a multifunction plate reader.

On the set-up of data set [1]: method as in PMID 28726132. As to conditions: phase 1 clinical trial, given dosage, 5-day dosing time period; cited from earlier work.
For another data set, the target named is DYRK3 (Homo sapiens, UniProt O43781). The experiment in a line: Kinase assay DYRK3. Type of data set: biochemical. The procedure: as §1, §2, §3
The subject of the next data set is Sprague-Dawley rats. The experiment in a line: Sprague-Dawley rat repeated administration toxicity study. The conditions noted are these: for Death / survival after 9-day dosing: Sprague-Dawley rats, oral 15 mg/kg once a day, n=3; for Rats survived at day 14: female, Sprague-Dawley, po, 14 days. The procedure: Rat toxicity was studied at JOINN Laboratories (Suzhou, Jiangsu, China). […] […] […] Using 2 mL sterile syringes and gavage tubes, animals were dosed based on their most recent body weight, with volumes rounded to one decimal place. Test compounds were stirred continuously for at least 15 minutes before and during administration. The rats were dosed once a day for 14 days.

The next data set deals with CLK4 (Homo sapiens, UniProt Q9HAZ1). The experiment in a line: Kinase assay CLK4. Type of data set: biochemical. The procedure: as §1, §2, §3
The target of a further data set is CK1δ (Homo sapiens, UniProt P48730). The experiment in a line: Kinase assay CK1δ. Type of data set: biochemical. The procedure:
as §1, §2, §3

The next data set has as its target DRAK1 (Homo sapiens, UniProt Q9UEE5). Nature of the data set: Kinase assay DRAK1. Format: biochemical. The procedure: as §1, §2, §3
The subject of another data set is Panc04.03. The experiment in a line: Cell viability (CellTiter-Glo, 72 h), Panc04.03. Format: cell-based, Human. As to conditions: Panc04.03, 72 hours; for IC50: Homo sapiens, Panc 04.03; for Bottom: dose-response curve bottom; for Top: dose-response curve top. The procedure:
Human pancreatic cancer cell lines (PSN1, PANC-1, Panc 04.03, MIA PaCa-2, BxPC-3, and Capan-1) were cultured in their respective culture media. PSN1 cell lines were maintained in RPMI 1640 + 10%FBS. MIA PaCa-2 cells were cultured in DMEM+10%FBS+5% horse serum. Panc 04.03 cells were grown in RPMI 1640 + 15%FBS+10μg/mL Insulin. PANC-1 cells were maintained in DMEM+10%FBS. BxPC-3 cells were cultured in RPMI 1640 + 10%FBS. Capan-1 cells were grown in IMDM+20%FBS. All cells were incubated at 37°C in a humidified atmosphere containing 5% CO2.
For assays, cells in the logarithmic growth phase were harvested, seeded to different concentrations at 2,000-6,000 cells/well in 96-well plates. Following overnight incubation, test compounds were added at various concentrations and incubated for 72 hours. Cell viability was assessed by the ATP concentration using the CellTiter-Glo reagent (Promega, Madison, WI 53711 USA), and luminescence values were recorded by a Multilabel Reader (PerkinElmer, Waltham, MA, USA).
On the technique in general: ATP-based viability assays read luminescence as a measure of living cells.

Chain of CLK4 (Q9HAZ1 whole entry, species assumed): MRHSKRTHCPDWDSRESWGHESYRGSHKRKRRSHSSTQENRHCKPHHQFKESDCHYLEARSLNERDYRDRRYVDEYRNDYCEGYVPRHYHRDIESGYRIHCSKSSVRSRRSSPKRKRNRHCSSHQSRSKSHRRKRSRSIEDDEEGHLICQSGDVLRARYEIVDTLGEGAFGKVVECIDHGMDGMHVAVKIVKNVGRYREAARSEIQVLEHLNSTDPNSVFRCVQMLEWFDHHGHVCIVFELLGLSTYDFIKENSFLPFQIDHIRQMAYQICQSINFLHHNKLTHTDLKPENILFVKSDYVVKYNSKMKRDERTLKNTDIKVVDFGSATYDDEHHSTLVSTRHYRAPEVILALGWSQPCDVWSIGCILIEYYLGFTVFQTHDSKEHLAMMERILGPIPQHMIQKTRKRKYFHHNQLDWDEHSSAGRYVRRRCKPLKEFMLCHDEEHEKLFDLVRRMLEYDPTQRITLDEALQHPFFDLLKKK
Chain of DYRK3 (O43781 whole entry, species assumed): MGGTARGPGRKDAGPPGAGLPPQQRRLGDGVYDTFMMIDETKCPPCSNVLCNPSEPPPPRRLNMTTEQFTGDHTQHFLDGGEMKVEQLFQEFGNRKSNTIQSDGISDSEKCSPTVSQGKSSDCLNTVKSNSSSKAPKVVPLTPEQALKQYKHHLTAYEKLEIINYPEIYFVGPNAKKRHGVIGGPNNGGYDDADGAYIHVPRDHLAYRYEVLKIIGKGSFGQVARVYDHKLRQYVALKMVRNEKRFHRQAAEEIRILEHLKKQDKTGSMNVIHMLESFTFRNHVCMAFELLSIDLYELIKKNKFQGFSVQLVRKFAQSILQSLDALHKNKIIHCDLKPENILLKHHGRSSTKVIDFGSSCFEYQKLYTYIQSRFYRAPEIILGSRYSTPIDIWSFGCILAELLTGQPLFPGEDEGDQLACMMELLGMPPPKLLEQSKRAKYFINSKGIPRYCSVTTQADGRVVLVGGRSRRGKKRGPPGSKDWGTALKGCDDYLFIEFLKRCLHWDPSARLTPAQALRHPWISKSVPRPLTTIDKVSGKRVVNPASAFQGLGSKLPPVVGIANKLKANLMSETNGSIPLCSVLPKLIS
Chain of DRAK1 (Q9UEE5 whole entry, species assumed): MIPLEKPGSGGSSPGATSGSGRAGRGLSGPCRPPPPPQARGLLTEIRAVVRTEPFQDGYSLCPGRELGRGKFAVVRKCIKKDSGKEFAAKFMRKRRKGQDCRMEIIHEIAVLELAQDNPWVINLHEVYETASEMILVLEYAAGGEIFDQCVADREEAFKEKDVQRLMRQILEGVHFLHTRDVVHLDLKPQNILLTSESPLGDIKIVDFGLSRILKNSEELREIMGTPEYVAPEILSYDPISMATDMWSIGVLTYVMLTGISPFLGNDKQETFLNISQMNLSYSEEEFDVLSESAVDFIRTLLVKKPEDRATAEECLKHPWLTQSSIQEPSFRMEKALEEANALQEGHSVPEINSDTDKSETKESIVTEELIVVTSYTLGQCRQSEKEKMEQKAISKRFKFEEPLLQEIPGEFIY
Chain of CLK2 (P49760 whole entry, species assumed): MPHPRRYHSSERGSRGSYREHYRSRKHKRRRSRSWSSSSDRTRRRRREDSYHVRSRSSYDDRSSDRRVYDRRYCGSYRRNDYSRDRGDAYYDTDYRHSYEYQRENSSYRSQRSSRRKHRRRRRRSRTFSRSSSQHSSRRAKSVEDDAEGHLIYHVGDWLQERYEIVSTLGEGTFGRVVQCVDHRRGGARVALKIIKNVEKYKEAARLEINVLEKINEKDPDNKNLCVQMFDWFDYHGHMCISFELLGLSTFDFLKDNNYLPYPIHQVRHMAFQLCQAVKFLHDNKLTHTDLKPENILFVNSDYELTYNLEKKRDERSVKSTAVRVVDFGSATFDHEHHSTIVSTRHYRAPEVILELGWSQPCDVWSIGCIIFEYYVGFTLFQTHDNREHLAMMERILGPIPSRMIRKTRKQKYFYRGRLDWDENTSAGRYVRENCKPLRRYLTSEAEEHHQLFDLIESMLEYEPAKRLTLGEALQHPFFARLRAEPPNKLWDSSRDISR
Chain of CK1δ (P48730 whole entry): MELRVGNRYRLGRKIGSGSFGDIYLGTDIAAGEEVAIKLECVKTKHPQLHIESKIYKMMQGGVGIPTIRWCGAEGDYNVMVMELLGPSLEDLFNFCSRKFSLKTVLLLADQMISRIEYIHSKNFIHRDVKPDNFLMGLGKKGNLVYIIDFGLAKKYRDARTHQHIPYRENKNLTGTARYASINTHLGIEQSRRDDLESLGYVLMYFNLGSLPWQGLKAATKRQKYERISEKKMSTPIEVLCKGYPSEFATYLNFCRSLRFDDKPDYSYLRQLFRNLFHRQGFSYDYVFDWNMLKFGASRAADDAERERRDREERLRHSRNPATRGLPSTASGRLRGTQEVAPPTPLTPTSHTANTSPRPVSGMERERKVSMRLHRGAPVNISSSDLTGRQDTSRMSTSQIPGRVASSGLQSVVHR

As for `CN1CCN(c2ccc(OC(F)(F)F)c(Nc3ncc4c(n3)-c3c(c(C(N)=O)nn3CCO)CC4)c2)CC1` [NMS-P937], the IC50 against CLK2 worked out at 37 nM; against DYRK3, 114 nM; on CLK4 it was 278 nM; against CK1δ, 59.3 nM; at DRAK1, 44.6 nM; in the data set with Panc04.03, 73 nM. Also, the Tolerability result in data set [1] is given as “well tolerated”. The “Death / survival after 9-day dosing” value with Sprague-Dawley rats (15 mg/kg) is 1 out of 3 rats treated with NMS-P937 died and Death of 1/3 rat. Moreover, the “Rats survived at day 14” value in the data set with Sprague-Dawley rats (rat, in vivo, 15 mg/kg) was 2/3. Also, in the data set on Panc04.03, the Bottom is recorded as -4. In addition, the Top in the data set with Panc04.03 came to 29.5.

For `[2H]C1([2H])N(C)C([2H])([2H])C([2H])([2H])N(c2ccc(OC(F)(F)F)c(Nc3ncc4c(n3)-c3c(c(C(N)=O)nn3CCO)CC4)c2)C1([2H])[2H]` [PR00012], the half-inhibitory concentration (IC50) on CLK2 came to 24.8 nM; against DYRK3 it was 112 nM; against CLK4, 231 nM; at CK1δ, 51.8 nM; against DRAK1, 48.7 nM; with Panc04.03, 83.8 nM. Also, the “Death / survival after 9-day dosing” value in the data set with Sprague-Dawley rats is on record as “all three rats treated with PR00012 survived”. Moreover, the “Rats survived at day 14” value in the data set on Sprague-Dawley rats (rat, in vivo, 15 mg/kg) is recorded as 3/3. Moreover, in the data set on Sprague-Dawley rats (rat, in vivo, 10 mg/kg), the Tolerability result is recorded as “the rats were still tolerable”. Also, in the data set with Panc04.03, the Bottom is on record as 10.8. Further, the Top in the data set on Panc04.03 turned out to be 42.5.
